The source of these data is patent publication US7148250B2, “Indoles as NAALADase inhibitors” (Guilford Pharmaceuticals Inc., priority 2001, dated 2006).

The structures appear in SMILES notation.

In test [1] the test system is transgenic HD mice of the N171-82Q strain. Description: Transgenic mouse model of Huntington's disease (rotarod, locomotion, survival). Type of test: in vivo. Here is the method:
Transgenic HD mice of the N171-82Q strain and non-transgenic littermates were treated with NAALADase inhibitor Compound B (30 mg/kg) or a vehicle from 10 weeks of age. The mice were placed on a rotating rod (“rotarod”). The length of time at which the mouse fell off the rotarod was recorded as a measure of motor coordination. […] The treatment with Compound B had no effect on the rotarod performance of normal non-HD mice.
The total distance traveled by the mice was also recorded as a measure of overall locomotion.
The effects of Compound B and vehicle on the survival of transgenic HD mice (N171-82Q) were evaluated. Thirteen mice (six male and seven female) were assigned to the Compound B treatment group, and fourteen mice (six male and eight female) were assigned to the vehicle treatment group. Treatment was continued until all the mice died.
In general terms: The rotarod test checks motor coordination on a turning rod.

Another test concerns BB/W rats. Put plainly: Retinal disorders in diabetic BB/W rats (BM thickness, E/P ratio). It is filed as in vivo, rat. To be noted: for BM THICKNESS ± SD (n = 3) / E/P RATIO (n = 8–10): diabetic BB/W rats. Here is the method:
Four (4) groups of rats received daily insulin injections to maintain their glucose levels at about 350 mg/dl. Starting at the onset of hyperglycemia, NAALADase inhibitor 2-(3-sulfanylpropyl)-pentanedioic acid was administered daily for 6 months to one group of BB/W rats at a dose of 10 mg/kg and to a second group of BB/W rats at a dose of 30 mg/kg. A third group of BB/W rats and a fourth group of non-diabetic rats received daily vehicle treatment (50 mM Hepes buffered saline).
After six (6) months of NAALADase inhibitor or vehicle treatment, the rats were sacrificed and their eyes were removed. From each rat, one eye was processed for elastase digest while the other eye was processed for transmission electron microscopy (TEM) and basement membrane (BM) thickness.
Retinal digests were prepared using elastase on retinas as described in Layer, N., Invest Ophthalmol Vis Sci (1993) 34:2097. Eyes were removed from recently killed BB/W rats (n=25) and age-matched […] controls (n=10). The retinas (n=35) were fixed at room temperature by immersing the whole eye (slit at limbus) in 4% (w/v) paraformaldehyde in 50 mmol/L Na—K phosphate buffer with 8% sucrose. The fixed retinas were rinsed in deionized water and were incubated for 3 minutes in a 37° C. agitating water bath in 40 units/mL elastase in Na—K phosphate buffer with 150 mmol/L NaCl and 5 mmol/L ethylenediamine tetraacetic acid (EDTA), pH 6.5. The tissues were washed overnight in 100 mmol/L Tris-HCL (pH 8.5) and then transferred to deionized water for removal of the loosened vitreous and digested neural elements by gentle agitation using the sides of closed forceps and the sides and ends of very fine brushes. After all loose tissues were removed, the retinas were incubated once more in fresh enzyme for 3 minutes and then subjected to a second overnight wash at room temperature in Tns-HCl buffer. On the third day, the retinas were again transferred to deionized water for additional removal of digested neural elements. The vascular network that was completely free of nonvascular elements was mounted flat by flotation in Ca^2+ and Mg^2+ free Dulbecco's PBS on siliconized slides (#S1308, Oncor, Gaithersburg, Md.). After air drying in a dust free environment, the mounts of the retinal microvasculature were stained using periodic acid Schiff reaction and hematoxylin counterstaining, as described in Luna, L., ed. Manual of Histologic Staining Methods of the Armed Forces Institute of Pathology (1968) McGraw-Hill, New York, N.Y. The preparations were then examined by light microscopy and photographed.
The stained and intact retinal whole mounts were coded and subsequent counting was done masked, as described in Cuthbertson, R., Invest Ophthalmol Vis Sci. (1986) 27:1659–1664).
Ten fields at ×100 magnification were counted for endothelial and pericyte cells using previously described morphologic criteria (see Kuwabara, T., Arch Ophthalmol. (1960) 64:904–911). In every sample, at least 200 cells were counted from the mid zone of the retina. Mean values for endothelial cell/pericyte (E/P) ratios were initially calculated in 3 retinas from each of the four (4) groups of rats.
Each eye was fixed in 4% glutaraldehyde and dissected free of sclera and choroids, then trimmed and postfixed in 1% osmium tetroxide. After dehydration and embedding, thin sections were stained with uranyl acetate and lead citrate. Initially, BM thickness of retinal capillaries from 3 non-diabetic rats receiving vehicle, 3 diabetic animals receiving 10 mg/kg 2-(3-sulfanylpropyl)-pentanedioic acid, and 3 diabetic rats receiving 30 mg/kg 2-(3-sulfanylpropyl)-pentanedioic acid were compared with 3 diabetic rats receiving a vehicle. At least 10 capillaries per eye from the inner nuclear and plexiform layers were photographed at a magnification of 10,000×. Exact magnification was determined for each set of negatives with a 28,800 line/inch calibration grid. Negatives were enlarged 3×. […]

Setting [2] is: 10 mg/kg daily for 6 months, 10 mg/kg.
Where [3] appears, read: 10 mg/kg daily for 6 months, listed as NAALADASE INHIBITOR, 10 mg/kg.
Where [4] appears, read: 30 mg/kg daily for 6 months, 30 mg/kg.
The mark [5] stands for this setting: 30 mg/kg daily for 6 months, listed as NAAALADASE INHIBITOR, 30 mg/kg.
The mark [6] stands for this setting: high dose (30 mg/kg), six months.
Setting [7] is: low dose (10 mg/kg), six months.

Take `O=C(O)CCC(CCCS)C(=O)O` (stereo not shown) [Compound B, 2-(3-sulfanylpropyl)-pentanedioic acid]: in test [1] (female transgenic HD mice (p-value=0.03)), the “survival time versus vehicle treated counterparts” value is listed as “significantly prolonged survival time”. Further, the rotarod performance result in test [1] (normal non-HD mice, 30 mg/kg) is “no effect”. This compound also yielded a median survival time in test [1] (transgenic HD mice (N171-82Q), both sexes, not significant versus vehicle (p=0.07)) of 184 days. In test [1] (transgenic HD mice, 30 mg/kg from 10 weeks of age), the “rotarod performance (time on rotarod) versus vehicle” value is reported as “stayed longer on the rotarod”. Moreover, the “BM THICKNESS ± SD (n = 3)” value in the test with BB/W rats (setting [2]) is reported as 82.3±4.07 nm; in the test with BB/W rats (setting [3]), 82.3 ± 4.07 nm; with BB/W rats (setting [4]), 71.7±4.07 nm; with BB/W rats (setting [5]) it was 71.7 ± 4.07 nm. The “E/P RATIO (n = 8–10)” value in the test with BB/W rats (setting [2]) turned out to be 2.4±0.5; in the test with BB/W rats (setting [3]), 2.4 ± 0.5; in the test with BB/W rats (setting [4]), 1.9±0.4; with BB/W rats (setting [5]) it was 1.9 ± 0.4. Also, in the test on BB/W rats (setting [6]), the “reduction in BM thickness versus diabetic vehicle” value was 29.0%. The “reduction of E/P ratios versus diabetic vehicle” value with BB/W rats (setting [6]) came to 37%; in the test with BB/W rats (setting [7]) it was 20%. Also, the “decrease in BM thickness versus diabetic vehicle” value in the test on BB/W rats (setting [7]) is 18.5%.
